Results taken from patent publication US10660967B2, “Curcumin conjugates and methods of use thereof” (priority 2016, dated 2020).
≈ marks a conversion by molar mass, not a printed value. Where “and” joins values, the source holds several entries; their conditions need not be identical. Identical values can stand only once. Like-named read-outs stand apart in the source and are kept apart here.

Experiments:
[1] = tested on: Candida albicans (local isolate); assay: Antimicrobial MIC, agar dilution; conditions: Candida albicans (local isolate)
[2] = tested on: Streptococcus pyogenes ATCC19615; assay: Antimicrobial MIC, agar dilution
[3] = tested on: Pseudomonas aeruginosa ATCC27853; assay: Antimicrobial MIC, agar dilution
[4] = tested on: Salmonella typhi ATCC19430; assay: Antimicrobial MIC, agar dilution; assay type: cell-based; conditions: Salmonella enterica, read-out: Minimum inhibitory concentration (MIC)
[5] = tested on: Staphylococcus aureus ATCC25923; assay: Antimicrobial MIC, agar dilution; conditions: ATCC25923, 18 h, read-out: Minimum inhibitory concentration (MIC)
[6] = tested on: carrageenan induced paw edema; assay: Anti-inflammatory activity: acute carrageenan induced paw edema in rats; assay type: in vivo, Wister rats; conditions: 10 mg kg^−1 indomethacin mol equivalent; for % inhibition of edema / Mean edema thickness: intraperitoneally; for Mean edema thickness: mean ± SE; for Potency (% inhibition of edema relative to that of indomethacin reference standard): at 4 h effect
How it was run: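 Wistar rats (120–150 g, n=6/group) received subplantar 1% carrageenan in the right hind paw, and DMSO-vehicle animals served as controls. Results are given as % inhibition of edema thickness versus control.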

gastric mucosa = assay: Ulcerogenic liability (ulcer index); assay type: in vivo, albino mice
Procedure: The ulcerogenic liability was investigated in albino mice using the standard method. […] The animals were fasted 18 h before drug administration. […] The control group animals were given saline solution only with few drops of Tween 80. […] The gastric mucosa was examined with a magnifying lens (10×) for the presence of lesions and erosions.
1. percentage incidence of ulcer divided by 10;
2. average number of ulcers per stomach; and
3. average severity of ulcers;

[7] = tested on: PHA-stimulated splenocytes; assay: Proliferative response of PHA-stimulated splenocytes (MTT assay); assay type: cell-based
Procedure: Immunomodulatory effects of the synthesized curcumin conjugates on the proliferative response of PHA-stimulated splenocytes were evaluated. The effect of curcumin and its amino acid conjugates on splenocyte viability and proliferation in response to a T cell miotgen (Phytohaemagglutinin; PHA) was evaluated using the MTT assay. Freshly prepared splenocytes (1×10^6 cells/200 μl/well) were cultured in a 96-well U-bottom microtiter plate (Nunc) in complete medium. Cells were treated with tested compounds at a final concentration of 10 μM, vehicle (DMSO) or left untreated in triplicate then incubated at 37° C. and 5% CO2. When testing the immunoregulatory effects of the compounds on splenocyte stimulation, PHA (5 μg/ml) was added to the culture media to induce T cell proliferation. The proliferative response to PHA+vehicle and vehicle alone served as controls. After 72 hr, media were removed after pelleting the cells by centrifugation and MTT salt solution (5 mg/ml) was added into each well then incubated at 37° C. for 4 h. Afterwards, formazan crystals were dissolved by adding 150 μl 10% sodium dodecyl sulfate (SDS). Absorbance was measured with a spectrophotometer at 570 nm and reference wavelength of 690 nm.
Splenocyte stimulation index was determined as the ratio of O.D. values in tested compounds versus vehicle control cultures.

[8] = tested on: lipopolysaccharide-stimulated peritoneal macrophages; assay: Production of nitric oxide by lipopolysaccharide-stimulated peritoneal macrophages (Greiss reagent); assay type: cell-based; parameters: Potency (%): % inhibition of nitric oxide production relative to lipopolysaccharide-stimulated macrophages: concentration or dose not given beside the values; conditions: LPS-stimulated peritoneal macrophages
Procedure: The effects of the synthesized curcumin conjugates on the production of nitric oxide (μM) by lipopolysaccharide-stimulated peritoneal macrophages were evaluated.
Two milliliters of macrophage cells were seeded in 12-well tissue culture plates in nitrite-free medium supplemented with 0.1% bovine serum albumin and incubated at 37° C. LPS±epinephrine, norepinephrine, or dopamine at […] concentrations was added to some wells. The concentrations of LPS used ranged from 0.5 to 10 ng/ml. After incubation for 24 h, supernatants were collected for measuring nitric oxide (NO) by spectrophotometry. The production of NO was determined from the accumulation of nitrite (NO2), the metabolic end product of NO metabolism, in the medium using the Greiss reagent. About equal volumes (100 μl) of sample and Greiss reagent (1:1 mixture of 1% sulfanilamide in 5% phosphoric acid, and 0.1% a-naphthylamine in distilled water) were mixed and incubated at room temperature for 15 min, and absorbance was measured at 532 nm on a spectrophotometer.

[9] = ATCC19615, 18 h, read-out: Minimum inhibitory concentration (MIC)
[10] = ATCC19615, read-out: Minimum inhibitory concentration (MIC)
[11] = ATCC27853, 18 h, read-out: Minimum inhibitory concentration (MIC)
[12] = ATCC27853, read-out: Minimum inhibitory concentration (MIC)
[13] = both, albino, mouse, in vivo, po, 10 mg/kg, 3 days
[14] = orally, three successive days, 10 mg/kg indomethacin mol equivalent

| Molecule | % inhibition of edema ([6]; 1 h) | Mean edema thickness ([6]; 1 h) | % inhibition of edema ([6]; 2 h) | Mean edema thickness ([6]; 2 h) | % inhibition of edema ([6]; 3 h) | Mean edema thickness ([6]; 3 h) | % inhibition of edema ([6]; 4 h) | Mean edema thickness ([6]; 4 h) | % inhibition of edema ([6]; 24 h) | Mean edema thickness ([6]; 24 h) | Potency (% inhibition of edema relative to that of indomethacin reference standard) [6] | also measured |
| --- | --- | --- | --- | --- | --- | --- | --- | --- | --- | --- | --- | --- |
| C[C@@H]1[C@H](O)[C@@H](C)/C=C/C=C/C=C/C=C/C=C/C=C/C=C/[C@H](O[C@@H]2O[C@H](C)[C@@H](O)[C@H](N)[C@@H]2O)C[C@@H]2O[C@](O)(C[C@@H](O)C[C@@H](O)[C@H](O)CC[C@@H](O)C[C@@H](O)CC(=O)O[C@H]1C)C[C@H](O)[C@H]2C(=O)O [Amphotericin B, reference compound] |  |  |  |  |  |  |  |  |  |  |  | Minimum inhibitory concentration (MIC) ([1]; 37° C., 18 h): 0.39 µg/mL (≈ 0.000422 mM); Minimum inhibitory concentration (MIC) ([1]; value in brackets): (0.422) μM |
| O=C(O)c1cn(C2CC2)c2cc(N3CCNCC3)c(F)cc2c1=O [Ciprofloxacin, reference compound] |  |  |  |  |  |  |  |  |  |  |  | MIC [2, 9]: 1250 µg/mL; MIC [2, 10]: 3770 µM; MIC [3, 11]: 4.8 µg/mL; MIC [3, 12]: 14.5 µM; MIC ([4]; 18 h): 2.4 µg/mL; MIC [4]: 7.24 µM; MIC [5]: 1250 µg/mL (≈ 3.77 mM) |
| COc1cc(/C=C/C(=O)CC(=O)/C=C/c2ccc(OC(=O)CCN)c(OC)c2)ccc1OC(=O)CCN.Cl.Cl [Compound 38] | 69% | 0.74 ± 0.09 mm | 71% | 0.60 ± 0.06 mm | 77% | 0.42 ± 0.03 mm | 89% | 0.16 ± 0.04 mm | 72% | 0.23 ± 0.01 mm | 102 |  |
| COc1cc(/C=C/C(=O)CC(=O)/C=C/c2ccc(OC(=O)[C@@H](N)CCSC)c(OC)c2)ccc1OC(=O)[C@@H](N)CCSC.Cl.Cl [Compound 39] | 64% | 0.86 ± 0.13 mm | 70% | 0.62 ± 0.11 mm | 73% | 0.49 ± 0.07 mm | 97% | 0.04 ± 0.01 mm | 36% | 0.53 ± 0.03 mm | 111 |  |
| COc1cc(/C=C/C(=O)CC(=O)/C=C/c2ccc(OC(=O)[C@@H](N)C(C)C)c(OC)c2)ccc1OC(=O)[C@@H](N)C(C)C.Cl.Cl [Compound 41] | 60% | 0.97 ± 0.10 mm | 50% | 1.04 ± 0.12 mm | 48% | 0.93 ± 0.11 mm | 46% | 0.75 ± 0.09 mm | 14% | 0.71 ± 0.11 mm | 53 |  |
| CC[C@H](C)[C@H](N)C(=O)Oc1ccc(/C=C/C(=O)CC(=O)/C=C/c2ccc(OC(=O)[C@@H](N)[C@@H](C)CC)c(OC)c2)cc1OC.Cl.Cl [Compound 42] | 59% and 33% | 0.99 ± 0.09 mm and 1.61 ± 0.07 mm | 54% and 36% | 0.95 ± 0.09 mm and 1.31 ± 0.09 mm | 65% and 47% |  | 98% and 76% |  | 35% and 30% | 0.54 ± 0.01 mm and 0.58 ± 0.08 mm | 113 and 87 |  |
| COc1cc(/C=C/C(=O)CC(=O)/C=C/c2ccc(OC(=O)[C@@H](N)CCC(N)=O)c(OC)c2)ccc1OC(=O)[C@@H](N)CCC(N)=O.Cl.Cl [Compound 43] | 46% | 1.29 ± 0.19 mm | 45% | 1.14 ± 0.11 mm | 43% | 1.02 ± 0.14 mm | 42% | 0.81 ± 0.11 mm | 31% | 0.57 ± 0.09 mm | 48 |  |
| CC(C)Cc1ccc(C(C)C(=O)O)cc1 (stereo not shown) [Ibuprofen, 2-(4-isobutylphenyl)propanoic acid, reference compound] |  |  |  |  |  |  |  |  |  |  |  | Average of ulcer number (gastric mucosa; [13]): 0.33; Average severity of ulcer (gastric mucosa; [13]): 0.67; Number of animals with ulcer (gastric mucosa; [13]): 2/6; % Incidence of ulcer divided by 10 (gastric mucosa; [14]): 3.33 |
| COc1ccc2c(c1)c(CC(=O)O)c(C)n2C(=O)c1ccc(Cl)cc1 [Indomethacin, 2-(1-(4-chlorobenzoyl)-5-methoxy-2-methyl-1H-indol-3-yl)acetic acid, reference compound] |  |  |  |  |  |  |  |  |  |  |  | % Incidence of ulcer divided by 10 (gastric mucosa; [13]): 10; Average of ulcer number (gastric mucosa; [13]): 2; Number of animals with ulcer (gastric mucosa; [13]): 6/6; Average severity of ulcer (gastric mucosa; [14]): 1.67; Ulcer index (gastric mucosa; sum of the three values, orally, three successive days, 10 mg/kg indomethacin mol equivalent): 13.67 |
| CCn1cc(C(=O)O)c(=O)c2cc(F)c(N3CCNCC3)cc21 [Norfloxacin, reference compound] |  |  |  |  |  |  |  |  |  |  |  | MIC [2, 9]: 625 µg/mL; MIC [2, 10]: 1960 µM; MIC [3, 11]: 4.8 µg/mL; MIC [3, 12]: 15 µM; MIC ([4]; 18 h): 2.4 µg/mL; MIC [4]: 7.52 µM; MIC [5]: 1250 µg/mL (≈ 3.91 mM) |
| Phytohaemagglutinin [PHA, reference compound] |  |  |  |  |  |  |  |  |  |  |  | Stimulation Index (average ± SD) ([7]; PHA 5 μg/ml, 72 hr, compounds at 5 μM (method says 10 μM), ratio of O.D. versus vehicle control): 2.78 ± 0.28; splenocyte proliferation, fold relative to untreated control cells ([7]; in the presence of PHA, text of b265): 2.76 fold |
| lipopolysaccharide [LPS, reference compound] |  |  |  |  |  |  |  |  |  |  |  | Potency (%): % inhibition of nitric oxide production relative to lipopolysaccharide-stimulated macrophages [8]: 0.00%; Nitric oxide (nitrite) concentration, μM (average ± SD) ([8]; 24 h, nitrite by Greiss reagent): 27.31 ± 2.56 µM |
